Organism: Rattus norvegicus
Experiment: DrugMatrix - Regimen: Daily Repeat
Type: toxicity, organism-based, Sprague-Dawley
Design: regimen Daily Repeat, gender Male, age 6-8 weeks
Conditions: in vivo, po, route oral GAVAGE, vehicle 100 % SALINE; for ABSOLUTE BASOPHIL / ABSOLUTE EOSINOPHIL / ABSOLUTE LYMPHOCYTE / ABSOLUTE MONOCYTE / ABSOLUTE SEGMENTED NEUTROPHIL / BASOPHIL / EOSINOPHIL / ERYTHROCYTE COUNT / HEMATOCRIT / HEMOGLOBIN / LEUKOCYTE COUNT / LYMPHOCYTE / MEAN CORPUSCULAR HEMOGLOBIN / MEAN CORPUSCULAR HEMOGLOBIN CONCENTRATION / MEAN CORPUSCULAR VOLUME / MONOCYTE / NEUTROPHIL / NUCLEATED RED BLOOD CELLS / PLATELET COUNT: tissue Blood; for ALANINE AMINOTRANSFERASE / ALBUMIN / ALKALINE PHOSPHATASE / ASPARTATE AMINOTRANSFERASE / BLOOD UREA NITROGEN / CARBON DIOXIDE / CHLORIDE / CHOLESTEROL / CREATINE PHOSPHOKINASE / CREATININE / GLUCOSE / LACTATE DEHYDROGENASE / LIPASE / PHOSPHORUS / POTASSIUM / SODIUM / TOTAL BILIRUBIN / TOTAL PROTEIN / URIC ACID: tissue Plasma
[1] = 11 mg/kg, 120 h, dose level High, time 5 day
[2] = […], 72 h, dose 2.8 mg/Kg, dose level Low, time 3 day
[3] = […], 120 h, dose 2.8 mg/Kg, dose level Low, time 5 day

Structure (SMILES): Cc1cc(CC(=O)O)n(C)c1C(=O)c1ccc(Cl)cc1 [ZOMEPIRAC]
- ABSOLUTE BASOPHIL [1]: 0 CELLS/uL
- ABSOLUTE EOSINOPHIL [1]: 95 CELLS/uL
- ABSOLUTE LYMPHOCYTE [1]: 12621.33 CELLS/uL
- ABSOLUTE MONOCYTE [1]: 94.67 CELLS/uL
- ABSOLUTE SEGMENTED NEUTROPHIL [1]: 855.67 CELLS/uL
- BASOPHIL [1]: 0%
- EOSINOPHIL [1]: 0.67%
- ERYTHROCYTE COUNT [1]: 5.5 x10E6/uL
- HEMATOCRIT [1]: 34.03%
- HEMOGLOBIN [1]: 13.2 G/DL
- LEUKOCYTE COUNT [1]: 13.67 x10E3/uL
- LYMPHOCYTE [1]: 92.33%
- MEAN CORPUSCULAR HEMOGLOBIN [1]: 24.13 pg
- MEAN CORPUSCULAR HEMOGLOBIN CONCENTRATION [1]: 38.87 G/DL
- MEAN CORPUSCULAR VOLUME [1]: 62.1 fL
- MONOCYTE [1]: 0.67%
- NEUTROPHIL [1]: 6.33%
- NUCLEATED RED BLOOD CELLS [1]: 0 /100WBC
- PLATELET COUNT [1]: 1240 x10E3/uL
- ALANINE AMINOTRANSFERASE [1]: 49.33 u/L
- ALBUMIN [1]: 3.77 G/DL
- ALKALINE PHOSPHATASE [1]: 252.67 u/L
- ASPARTATE AMINOTRANSFERASE [1]: 97.67 u/L
- BLOOD UREA NITROGEN [1]: 15.67 mg/dL
- CARBON DIOXIDE [1]: 24 mmol/L
- CHLORIDE [1]: 105.33 MEQ/L
- CHOLESTEROL [1]: 76.67 mg/dL
- CREATINE PHOSPHOKINASE [1]: 395.67 u/L
- CREATININE [1]: 0.17 mg/dL
- GLUCOSE [1]: 143.33 mg/dL
- LACTATE DEHYDROGENASE [1]: 595 u/L
- LIPASE [1]: 8.67 u/L
- PHOSPHORUS [1]: 11.83 mg/dL
- POTASSIUM [1]: 6.93 MEQ/L
- SODIUM [1]: 148.57 MEQ/L
- TOTAL BILIRUBIN [1]: 0.13 mg/dL
- TOTAL PROTEIN [1]: 5.87 G/DL
- URIC ACID [1]: 2.33 mg/dL
- ABSOLUTE BASOPHIL [2]: 0 CELLS/uL
- ABSOLUTE EOSINOPHIL [2]: 111.67 CELLS/uL
- ABSOLUTE LYMPHOCYTE [2]: 15209 CELLS/uL
- ABSOLUTE MONOCYTE [2]: 151.67 CELLS/uL
- ABSOLUTE SEGMENTED NEUTROPHIL [2]: 1061 CELLS/uL
- BASOPHIL [2]: 0%
- EOSINOPHIL [2]: 0.67%
- ERYTHROCYTE COUNT [2]: 5.59 x10E6/uL
- HEMATOCRIT [2]: 34.1%
- HEMOGLOBIN [2]: 13.53 G/DL
- LEUKOCYTE COUNT [2]: 16.53 x10E3/uL
- LYMPHOCYTE [2]: 91.33%
- MEAN CORPUSCULAR HEMOGLOBIN [2]: 24.2 pg
- MEAN CORPUSCULAR HEMOGLOBIN CONCENTRATION [2]: 39.7 G/DL
- MEAN CORPUSCULAR VOLUME [2]: 60.97 fL
- MONOCYTE [2]: 1%
- NEUTROPHIL [2]: 7%
- NUCLEATED RED BLOOD CELLS [2]: 0 /100WBC
- PLATELET COUNT [2]: 1145.33 x10E3/uL
- ALANINE AMINOTRANSFERASE [2]: 50.67 u/L
- ALBUMIN [2]: 4 G/DL
- ALKALINE PHOSPHATASE [2]: 259 u/L
- ASPARTATE AMINOTRANSFERASE [2]: 76.67 u/L
- BLOOD UREA NITROGEN [2]: 14.67 mg/dL
- CARBON DIOXIDE [2]: 23 mmol/L
- CHLORIDE [2]: 102 MEQ/L
- CHOLESTEROL [2]: 65.33 mg/dL
- CREATINE PHOSPHOKINASE [2]: 362.33 u/L
- CREATININE [2]: 0.2 mg/dL
- GLUCOSE [2]: 180 mg/dL
- LACTATE DEHYDROGENASE [2]: 137 u/L
- LIPASE [2]: 12.33 u/L
- PHOSPHORUS [2]: 13.07 mg/dL
- POTASSIUM [2]: 6.11 MEQ/L
- SODIUM [2]: 141.93 MEQ/L
- TOTAL BILIRUBIN [2]: 0.2 mg/dL
- TOTAL PROTEIN [2]: 5.77 G/DL
- URIC ACID [2]: 1.6 mg/dL
- ABSOLUTE BASOPHIL [3]: 0 CELLS/uL
- ABSOLUTE EOSINOPHIL [3]: 70.67 CELLS/uL
- ABSOLUTE LYMPHOCYTE [3]: 13627.67 CELLS/uL
- ABSOLUTE MONOCYTE [3]: 0 CELLS/uL
- ABSOLUTE SEGMENTED NEUTROPHIL [3]: 1235 CELLS/uL
- BASOPHIL [3]: 0%
- EOSINOPHIL [3]: 0.33%
- ERYTHROCYTE COUNT [3]: 5.81 x10E6/uL
- HEMATOCRIT [3]: 35.67%
- HEMOGLOBIN [3]: 14.07 G/DL
- LEUKOCYTE COUNT [3]: 14.93 x10E3/uL
- LYMPHOCYTE [3]: 91.33%
- MEAN CORPUSCULAR HEMOGLOBIN [3]: 24.23 pg
- MEAN CORPUSCULAR HEMOGLOBIN CONCENTRATION [3]: 39.47 G/DL
- MEAN CORPUSCULAR VOLUME [3]: 61.53 fL
- MONOCYTE [3]: 0%
- NEUTROPHIL [3]: 8.33%
- NUCLEATED RED BLOOD CELLS [3]: 0 /100WBC
- PLATELET COUNT [3]: 1274.67 x10E3/uL
- ALANINE AMINOTRANSFERASE [3]: 59.33 u/L
- ALBUMIN [3]: 4.17 G/DL
- ALKALINE PHOSPHATASE [3]: 331 u/L
- ASPARTATE AMINOTRANSFERASE [3]: 103.33 u/L
- BLOOD UREA NITROGEN [3]: 16.33 mg/dL
- CARBON DIOXIDE [3]: 22.67 mmol/L
- CHLORIDE [3]: 104.67 MEQ/L
- CHOLESTEROL [3]: 64.33 mg/dL
- CREATINE PHOSPHOKINASE [3]: 532.33 u/L
- CREATININE [3]: 0.2 mg/dL
- GLUCOSE [3]: 159.67 mg/dL
- LACTATE DEHYDROGENASE [3]: 749.67 u/L
- LIPASE [3]: 10 u/L
- PHOSPHORUS [3]: 12.53 mg/dL
- POTASSIUM [3]: 6.9 MEQ/L
- SODIUM [3]: 147.37 MEQ/L
- TOTAL BILIRUBIN [3]: 0.2 mg/dL
- TOTAL PROTEIN [3]: 6.2 G/DL
- URIC ACID [3]: 2 mg/dL

Reference: ChEMBL document CHEMBL3885881, “DrugMatrix”
